Earlier results, collected in patent publication US7910108B2, “Sheddase inhibitors combined with CD30-binding immunotherapeutics for the treatment of CD30 positive diseases” (Incyte Corporation, priority 2006, dated 2011).
Where two headings read alike, the source gives them in different places.

How the values were obtained:
CD30 [1] = settings: in vivo, rodent; administered concomitantly with anti-CD30 immunotoxins
CD30 [2] = settings: in vitro; combined with anti-CD30 immunotoxins

CO[C@H](C(=O)NO)[C@@H](CC(C)C)C(=O)N[C@H](C(=O)Nc1ccccn1)C(C)(C)C [BB-3644]
effectiveness of combination versus immunotoxin alone (CD30 [1]): substantially more effective
effectiveness of combination versus immunotoxin alone (CD30 [2]): substantially more effective
